Patent US6469138B1, “Thrombospondin receptor binding peptides” (Washington University, priority 1993, dated 2002)
“Also recorded” adds a separate entry of the source. Where a SMILES comes first, the peptide text is derived from it. Where no end group is shown, it is not given here.

Assays:
G361 human melanomas = assay: Attachment of G361 cells to immobilized TS1 or LM; assay type: cell-based; conditions: protein-coated wells
Procedure: (§1) FIGS. 6A, 6B, 6C and 6D show the attachment of four cell types to immobilized TS-1 and LM. Wells were coated with the indicated concentrations of TS1 (▪) or LM (●). Assays were performed as described under “Methods” hereinafter with (FIG. 6A)—G361 human melanomas; (FIG. 6B)—K562 erythroleukemia cells; (FIG. 6C)—HT1080 fibrosarcomas; and (FIG. 6D)—C32 amelanotic melanomas added to the wells.
(§2) Cell Adhesion Assay—Cell adhesion was performed in 96-well plates by conventional procedures as previously described (Prater et al., 1991; Kosfeld and Frazier, 1992). Synthetic peptides were solubilized with 6 N guanidine HCl (GnHCl) because some hydrophobic peptides were insoluble at concentrations approaching 1 mM in TBS. […] The efficiency of coupling of all peptides was greater than 90% as judged by UV absorbance. […]
(§3) After blocking, cells were allowed to attach for 1 hr at 37° C. to substrate-coated wells or beads. In some tests, inhibition was determined by adding peptide inhibitors of cell attachment to each well along with the cells. After removal of non-adhering cells, cells attached to immobilized substrates were quantitated with endogenous cellular phosphatase activity which is measured by absorption at 410 nm as previously described (Prater et al., 1991). […]

[1] = tested on: K562 human erythroleukemia cells; assay: Attachment of K562 cells to immobilized TS1, LM or rCBD; assay type: cell-based; conditions: protein-coated wells
Procedure: as §1, §2, §3

[2] = tested on: HT1080 human fibrosarcomas; assay: Attachment of HT1080 cells to immobilized TS1 or LM; assay type: cell-based; conditions: protein-coated wells
Procedure: as §1, §2, §3

C32 human melanoma = assay: Attachment of C32 cells to immobilized TS1 or LM; assay type: cell-based; conditions: protein-coated wells
Procedure: as §1, §2, §3

G361 cells [3] = assay: Inhibition by soluble peptides of G361 cell attachment to immobilized rCBD of TS1; assay type: cell-based, human; conditions: for inhibition of G361 cell attachment to rCBD (in words): soluble peptide inhibitor, immobilized rCBD
Procedure: FIGS. 3A and 3B show the effect of the active subpeptides of C4 and C7 on G361 cell attachment to the rCBD of TS1. To microtiter wells containing immobilized rCBD (10 μg/ml), G361 cells were added with (FIG. 3A) 4N1-1 (●), 7N3-1 (▪), 4N1-1 plus 7N3-1 (▴) and with (FIG. 3B) 4N1 (▪), 7N3 (●) and 4N1 plus 7N3 (▴). The cells were incubated for 1.5 hr in the wells and cell attachment was determined. The effects of these subpeptides on cell attachment are expressed as percent relative to the maximum cell attachment for each test where 100% is the number of cells binding to rCBD-coated well in the absence of peptide inhibitors.
After blocking, cells were allowed to attach for 1 hr at 37° C. to substrate-coated wells or beads. In some tests, inhibition was determined by adding peptide inhibitors of cell attachment to each well along with the cells. After removal of non-adhering cells, cells attached to immobilized substrates were quantitated with endogenous cellular phosphatase activity which is measured by absorption at 410 nm as previously described (Prater et al., 1991). Each assay was carried out in duplicate and each peptide was tested in 3 separate tests at 3 or more different concentrations.
To be sure that the active peptides from C4 and C7 contain the sequences that are relevant for attachment of cells to the CBD, the shorter, more soluble active peptides were tested as soluble inhibitors of the binding of G361 cells to rCBD immobilized on plastic wells. […] In contrast, 4N1-1 and 4N1, the active subpeptides for C4, are insoluble at concentrations higher than 0.2 mM and thus must be tested as soluble inhibitors at concentrations below this solubility limit. It should be noted that inclusion of peptides in the cell attachment assay at these concentrations had no adverse effects on the cells. The results of this complementary bioassay confirmed those of the direct cell adhesion assays (FIGS. 1 and 2). […] The inhibition was dose-dependent at peptide concentrations <0.1 mM for 4N1 and 7N3 and <0.2 mM for 4N1-1 and 7N3-1. […] Each peptide is present at ½ the indicated concentration. In the case of 4N1 plus 7N3, the inhibition was nearly complete (87%). […] To evaluate the contribution of adjacent sequences to activity, peptide 7N2-2 which contained the N-terminal sequence of 7N3-1, and 7N3-1 were examined in inhibition studies.

Solubility of peptides = assay type: physicochemical; conditions: for solubility: insoluble at higher concentrations, read-out: solubility limit
G361 cells [4] = assay: Direct attachment of G361 cells to peptides adsorbed on microtiter wells (cell adhesion assay); assay type: cell-based, human; conditions: peptide adsorbed to plastic wells; cells 1 hr at 37° C.; in words
Procedure: Equimolar concentrations of peptides shown in FIG. 1A were evaluated as attachment factors for G361 cells. Peptides C4 (¤), 4N (●), 4N1 (▴), 4N1-1 (♦), 4N2 (▪) and 4C ([formula]) were adsorbed to microtiter plates at the indicated concentrations. Cells were added to the wells and incubated for 1 hour at 37° C. The attached cells were quantitated as described under “Materials and Methods” hereinbelow, and the actual absorbance due to endogenous cellular phosphatase hydrolysis of p-Nitrophenyl phosphate at 410 nm is plotted.
Microtiter wells were adsorbed with peptides C7 (▪), 7N (●), 7N3 (▴), 7N3-1 (♦), 7N2 (▪), 7N2-2 (∘), 7N3-2 (▴) and 7C, 7N1 or 7N2-1 ([formula]) at various concentrations and the attachment of G361 cells was determined. The numbers of cells attached to these peptides were correlated with the cellular phosphatase activity which is expressed as absorbance at 410 nm.
Cell Adhesion Assay—Cell adhesion was performed in 96-well plates by conventional procedures as previously described (Prater et al., 1991; Kosfeld and Frazier, 1992). […] The efficiency of coupling of all peptides was greater than 90% as judged by UV absorbance. […]
After blocking, cells were allowed to attach for 1 hr at 37° C. to substrate-coated wells or beads. In some tests, inhibition was determined by adding peptide inhibitors of cell attachment to each well along with the cells. […]

[5] = target: thrombospondin 1 (TS1) receptor
[6] = target: thrombospondin 1 (TS1) receptor; remark: listed apart in the source
[7] = target: thrombospondin 1 (TS1) receptor; remark: listed apart in the source

## TS1: thrombospondin 1, extracellular matrix protein
G361 human melanomas
  attachment of G361 cells to immobilized protein: bound well
[1]
  attachment of K562 cells to immobilized protein: much more avidly than to LM
[2]
  attachment of HT1080 cells to immobilized protein: bound well
C32 human melanoma
  attachment of C32 cells to immobilized protein: much more avidly than to LM

## Gly-Arg-Val-Val-Met (GRVVM)
G361 cells [3]
  inhibition of G361 cell attachment to rCBD (in words): inactive

## Ile-Glu-Val-Val-Met (IEVVM)
G361 cells [3]
  inhibition of G361 cell attachment to rCBD (in words): inactive

## CSCC[C@H](NC(=O)[C@@H](NC(=O)[C@@H](NC(=O)[C@H](Cc1ccc(O)cc1)NC(=O)[C@H](Cc1ccccc1)NC(=O)[C@@H](N)CCCNC(=N)N)C(C)C)C(C)C)C(=O)N[C@@H](Cc1c[nH]c2ccccc12)C(=O)N[C@@H](CCCCN)C(=O)O [4N1-1, Arg-Phe-Tyr-Val-Val-Met-Trp-Lys]
Solubility of peptides
  solubility: ≤ 200 µM

## CSCC[C@H](NC(=O)[C@@H](NC(=O)[C@@H](NC(=O)[C@H](Cc1ccc(O)cc1)NC(=O)[C@H](Cc1ccccc1)NC(=O)[C@@H](N)CCCNC(=N)N)C(C)C)C(C)C)C(=O)N[C@@H](Cc1c[nH]c2ccccc12)C(=O)N[C@@H](CCCCN)C(=O)N[C@@H](CCC(N)=O)C(=O)N[C@H](C(=O)N[C@H](C(=O)N[C@@H](CCC(N)=O)C(=O)N[C@@H](CO)C(=O)O)[C@@H](C)O)C(C)C [4N1, Arg-Phe-Tyr-Val-Val-Met-Trp-Lys-Gln-Val-Thr-Gln-Ser] (H-RFYVVMWKQVTQS-OH; N-terminus and C-terminus assumed)
Solubility of peptides
  solubility: ≤ 200 µM

## FIRVVMYEGKK [7N3]
G361 cells [4]
  cell attachment activity (direct attachment of G361 cells to immobilized peptide): significant activity
G361 cells [3]; rCBD 10 μg/ml immobilized, soluble peptide, combinations: each peptide at ½ the indicated concentration
  inhibition of G361 cell attachment to rCBD-coated surfaces: ~50%

## Ile-Arg-Val-Val-Gly (IRVVG)
G361 cells [3]
  inhibition of G361 cell attachment to rCBD (in words): inactive

## rCBD: recombinant COOH-terminal cell binding domain of TS1 expressed in bacteria as protein A-CBD fusion protein
[1]
  attachment of K562 cells to immobilized protein: bound well

## RFYVVM [4N1-2]
G361 cells [4]
  cell attachment activity (direct attachment of G361 cells to immobilized peptide): little or no activity
G361 cells [3]
  inhibition of G361 cell attachment to rCBD (in words): as potent as the longer 4N1-1; also recorded: active

## CC[C@H](C)[C@H](N)C(=O)N[C@@H](CCCNC(=N)N)C(=O)N[C@H](C(=O)N[C@H](C(=O)N[C@@H](CCSC)C(=O)O)C(C)C)C(C)C [7N3-1, Ile-Arg-Val-Val-Met] (H-IRVVM-OH; N-terminus and C-terminus assumed)
Solubility of peptides
  solubility (in words): highly soluble

## RFYVVMWKQVTQS [4N1]
[5]
  inhibition of G361 cell attachment to rCBD-coated wells: 30 % inhibition

## FIRVVMYEGKK [7N3]
[5]
  inhibition of G361 cell attachment to rCBD-coated wells: 50 % inhibition

## RFYVVMWK [4N1-1]
[6]
  attachment of G361 cells to peptide adsorbed to microtiter wells (absorbance at 410 nm) (% of the maximum activity of 4N1): 60
[5]
  inhibition of G361 cell attachment to rCBD-coated wells: 30 % inhibition
LM receptor
  inhibition of G361 cell attachment to LM-coated wells: 32 % inhibition
[7]
  inhibition of K562 cell attachment to immobilised rCBD: 36 % inhibition

## IRVVM [7N3-1]
[5]
  inhibition of G361 cell attachment to rCBD-coated wells: 25 % inhibition
LM receptor
  inhibition of G361 cell attachment to LM-coated wells: 50 % inhibition
[7]
  inhibition of K562 cell attachment to immobilised rCBD: 28 % inhibition
